Data: patent publication US11613729B2, “Cortical spheroids and methods of making the same” (The Florida State University Research Foundation, Inc., priority 2019, dated 2023)

Experiments:
hybrid spheroids [1] = assay: MTT assay of hybrid spheroids; format: cell-based, human
Procedure: First, an MTT assay was conducted. The spheroids of Examples 2 and 3 were incubated with 5 mg/mL 3-(4,5-Dimethylthiazol-2-yl)-2,5-diphenyltetrazolium bromide (MTT, Sigma) solution at day 7 after three cell types were co-cultured unless otherwise noted. The absorbance of the samples was measured at 500 nm using a microplate reader (Biorad, Richmond, Calif.).
The hMSCs were labeled with CellTracker Green.

iNPC-iEC-MSC spheroids = assay: Spheroid fusion / aggregation kinetics (squared aspect ratio); format: cell-based, human
Procedure: To form hHA hydrogels, 1% (w/v) HA from Sigma Aldrich solution was reacted with a 5-fold molar excess amount of methacrylic anhydride (MA) from Sigma Aldrich for 15 h in the dark at 4° C. The final product was collected by precipitating the solution in 5-fold volume of ethanol twice, and was then purified by dialysis using a membrane (3.5 kDa Mw cut-off, Thermofisher) to remove unreacted reagents. The purified MA-HA was filtered, lyophilized, and stored at −20° C. until further use. Next, ^1H-NMR spectroscopy (a Bruker 500M spectrometer at […]) was used to analyze and the degree of methacrylation. For culture experiments, day 14 iEC spheroids were transferred to the wells containing day 14 iNPC spheroids, at the same time hMSCs were added into the wells at different ratios (iNPC:iEC:MSC=4:2:0, 3:2:1 2:2:2, and 1:2:3). […] The morphology of hybrid spheroids were captured over 7 days by a phase contrast microscope.
Images of spheroid fusion were captured over time by a phase contrast microscope. The captured images were converted to binary images using ImageJ software (rsb.info.nih.gov/ij) and analyzed with the “particle analysis tool”. Through particle analysis, the squared aspect ratio of contact length between the two aggregates over maximum diameter (FIG. 6A) was determined to indicate the aggregate fusion process. The inter-sphere angle was measured as the intersecting angle between the tangent lines of two contacted spheroids to the touch point. For some experiments, the number of branching points and the total tube length in the area were evaluated.

hybrid spheroids [2] = assay: Neurite outgrowth of replated hybrid spheroids; format: cell-based, human; settings: ROCKi Y27632 10 μM, day 21 spheroids replated three days
Procedure: Effects of ROCKi Y27632, Geltrex, and HA on neurogenesis of hybrid spheroids were depicted (not shown). Day 21 hybrid spheroids embedded in Geltrex (5%) or treated with ROCKi Y27632 (10 μM) were replated on 1% Geltrex-coated surface for three days. Neurite and axonal extension indicated by β-tubulin III expression was shown. Phase contrast images of axon outgrowth of day 21 spheroids were produced (not shown). Fluorescent images for day 39 spheroids: neuron marker β-tubulin III, motor neuron progenitor marker Islet-1, GABAergic neuron marker (GABA), glutamatergic neuron marker (Glutamate), cortical neuron marker (TBR1), pre-synaptic marker synapsin I and post-synaptic marker PSD95 were produced (not shown).

Procedure for hMSCs in fused spheroids: The hMSCs were labeled with CellTracker Green. The hybrid (iNPC-iEC-MSC) spheroids were cultured in neural differentiation media (control) or media containing the CXCR4 inhibitor AMD3100 (100 nM, Sigma) for additional 10 days [53]. The fusion kinetics and cell localization were captured over time.

| Compound | area occupied by hMSCs (hMSCs in fused spheroids; AMD3100 100 nM vs control groups) | aspect ratio of hMSCs (area occupied by hMSCs to total area of fused spheroids) (hMSCs in fused spheroids; AMD3100 100 nM, day 4 to day 8) | MTT activity (cell proliferation) (hybrid spheroids [1]; AMD3100 100 nM, day 24 hybrid spheroids) | aspect ratio (iNPC-iEC-MSC spheroids; 20 μM or 40 μM ROCKi, plateau over 7 days) | tendency of two spheroids to fuse (iNPC-iEC-MSC spheroids; high concentration (20 μM or 40 μM)) | integration of MSCs into iNPC-iEC spheroids (iNPC-iEC-MSC spheroids; low concentration of ROCKi (10 μM)) | MTT activity (hybrid spheroids [1]; 20 μM ROCKi Y27632, 7 days of tri-culture, vs no treatment) | neurite outgrowth (hybrid spheroids [2]) |
| --- | --- | --- | --- | --- | --- | --- | --- | --- |
| c1cc(CN2CCCNCCNCCCNCC2)ccc1CN1CCCNCCNCCCNCC1 [AMD3100] | smaller than the control groups | decreased from day 4 to day 8 | little influence on cell proliferation |  |  |  |  |  |
| C[C@@H](N)[C@H]1CC[C@H](C(=O)Nc2ccncc2)CC1 [Y27632] |  |  |  | 0.5-0.7 | disrupted | did not impact | increased MTT activity | enhanced |
